These results are taken from article PMC12573178, “Substrate-Guided Development of HDAC11-Selective Inhibitors Featuring α‑Amino Amide Zinc-Binding Groups” (ACS Omega, 2025).

“Also recorded” adds a separate entry of the source.

The nature of data set [1]: Compound stability in human serum. Type of data set: in vitro ADME. The settings on record: 37 °C, 150 μM 31, after 24 h. The protocol: (§1) H Stability and permeability of 31 […]
(§2) stability was performed as described 21. Briefly, 400 µl of human serum or cell lysate from HEK293 cells (1 mg/ml) were incubated at 37 °C with 150 μM of 31 with 5% (v/v) DMSO. Samples of 45 µl were taken out at different time points and quenched with 50 µl of aqueous urea (6 M) and 100 µl of ACN.
(§3) Following centrifugation, 2 µl of a 2% (m/v) K 2CO3 solution in H2O and 1.5 µl of a 0.2 M Fmoc-OSu in ACN were added to the samples, which were then shaken at 1000 rpm for two hours at room temperature. This enabled the quantification of the residual amount of the compound via UPLC-UV/VIS at 260 nm. Compound peak areas were integrated. The experiments were performed in triplicate.
(§4) After 24h, 7% of 31 remained […]
(§5) detectable in cell lysate, and 20 % of 31 were still present in human serum (Figure S 38). […]
(§6) shown as mean values relative to the peak intensity at 0 h. Error bars represent the SD of three replicates.
(§7) For cell permeability studies, 40 µM of 31 were incubated with HEK293 cells in DMEM medium supplemented with 10 % FCS at 37°C overnight. The cells were harvested, washed extensively with ice-cold PBS and lysed in RIPA buffer. The sample was diluted 1:1 (v/v) with a solution of ACN : H 2O (1:1 )) before analyzing via UPLC-MS. […]

A short description of data set [2]: Compound stability in HEK293 cell lysate. The note with it: HEK293 cell lysate (1 mg/ml), 37 °C, 150 μM 31, after 24 h. The class given is in vitro ADME. As to the method: as §1, §2, §3, §4, §5, §6, §7
Data set [3] relates to HEK293 cells. Put plainly: Cell permeability / uptake, UPLC-MS of cell lysate. Type of data set: cell-based. The settings on record: 40 µM 31, 37 °C overnight, detected by mass spectrometry in cell lysate. As to the method:
as §1, §2, §3, §4, §5, §6, §7
B Mass spectrum of the peak detected at 3.62 […]

Data set [4] concerns HEK293 cells. Put plainly: Metabolic labeling with Alk-14, CuAAC with Cy3-azide, in-gel fluorescence (global fatty-acylation level). Type of data set: cell-based. The note with it: Alk-14 25 μM, 31 20 μM, 24 h.

As for `CCCCCCCCCCCCSC[C@@H](N)C(=O)NCCCC[C@@H]1NC(=O)[C@H](CCC(N)=O)NC1=O` [Compound 31], the compound remaining in data set [1] is recorded as 20%; in data set [2], 7%. The “Uptake by HEK293 cells” value with HEK293 cells [3] was “uptake of compound 31 by HEK293 cells; also recorded: showed uptake by HEK293 cells”. Moreover, the “In-gel fluorescence signal (protein fatty acylation)” value with HEK293 cells [4] is “moderately increased the fluorescence signal”.
